Measurements reported in patent publication US20160106439A1, “PNEUMATIC TOURNIQUET” (BIONUMERIK PHARMACEUTICALS, INC., priority 2013, published 2016).
“Also recorded” adds a separate entry of the source. Where two headings read alike, the source gives them in different places.

Tests used:
[1] = single oral dose of 100 mg, healthy volunteers; cited from earlier work
TrxR/Trx system = target: T1, TrxR/Trx system (Homo sapiens, UniProt P10599); assay: NADPH oxidation by TrxR and Trx; type: biochemical; conditions: increasing concentrations of the substance
T1 construct: 6xHis (N); purchased Sigma (Trx); American Diagnostica (bovine TrxR)
T1 sequence (P10599 1-105): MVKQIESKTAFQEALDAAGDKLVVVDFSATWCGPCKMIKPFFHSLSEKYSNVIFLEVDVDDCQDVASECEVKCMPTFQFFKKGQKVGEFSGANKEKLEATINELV

WT EGFR kinase = WT EGFR kinase (Homo sapiens, UniProt P00533); assay: WT EGFR kinase assay (ADP-glo); conditions: for more inhibition of WT EGFR relative to 4 nM Erlotinib alone: 10 μM ATP; for increased inhibition of WT EGFR relative to 20 nM Erlotinib alone: 100 μM ATP
Recombinant human Trx [2] = target: T2, Recombinant human Trx (Homo sapiens, UniProt P10599); type: biochemical; parameters: 6xHis (N); purchased Sigma (Trx); American Diagnostica (bovine TrxR); conditions: over MSSH and MSSCE
T2 sequence (P10599 1-105): T1 sequence (P10599 1-105)
Protocol: See, Luthman M and Holmgren A. Rat liver thioredoxin and thioredoxin reductase: purification and characterization. […] All disulfides were added to reactions as 10x solutions in buffer. The total volume of each reaction was 0.1 mL. Reactions were initiated by the addition of TrxR and were incubated at 25° C. for 40 minutes. Reactions were analyzed using a Molecular Devices SpectraMax Plus UV/vis plate reader and the activity was calculated using a 4 minute linear portion of each assay.

[3] = system: bovine brain microtubule protein (α-/β-tubulin); assay: Microtubule protein polymerization assay (OD350) and electron microscopy; type: biochemical; conditions: for effect on GTP-catalyzed microtubule protein polymerization: preincubated with microtubule protein on ice 20 minutes, 37° C.
thioredoxin = target: T3, thioredoxin (Homo sapiens, UniProt P10599); assay: LC-MS of thioredoxin incubations; type: binding; conditions: ion at m/z 1288.3
T3 construct: purchased Sigma (SigmaAldrich); host or cells: E. coli

[4] = read-out: Cmax for mesna; 41 g/m^2 Tavocept; cited from earlier work
some cell lines = assay: Mesna cytotoxicity in vitro (unpublished data)
Recombinant human Trx [5] = target: T2, Recombinant human Trx; assay: LC MS of Trypsin digested Trx after incubation with Tavocept, mesna or glutathione; type: binding; parameters: purchased Sigma (SigmaAldrich); host or cells: E. coli; conditions: fragment CMPTFQFFK (cys73); 10 mM, 4 to 6 hours
[6] = system: non-small cell lung cancer; conditions: patients >=65 years treated with carboplatin and paclitaxel; cited from earlier work
[7] = target: T4, TrxR/Trx insulin disulfide reduction (Homo sapiens, UniProt P10599); assay: TrxR/Trx insulin disulfide reduction assay with isolated Trx species; type: biochemical; conditions: free Tavocept or glutathione disulfide removed
T4 construct: purchased Sigma; host or cells: E. coli (said of the Sigma Trx)
T4 sequence (P10599 1-105): T1 sequence (P10599 1-105)

Chain of WT EGFR kinase (P00533 25-1210): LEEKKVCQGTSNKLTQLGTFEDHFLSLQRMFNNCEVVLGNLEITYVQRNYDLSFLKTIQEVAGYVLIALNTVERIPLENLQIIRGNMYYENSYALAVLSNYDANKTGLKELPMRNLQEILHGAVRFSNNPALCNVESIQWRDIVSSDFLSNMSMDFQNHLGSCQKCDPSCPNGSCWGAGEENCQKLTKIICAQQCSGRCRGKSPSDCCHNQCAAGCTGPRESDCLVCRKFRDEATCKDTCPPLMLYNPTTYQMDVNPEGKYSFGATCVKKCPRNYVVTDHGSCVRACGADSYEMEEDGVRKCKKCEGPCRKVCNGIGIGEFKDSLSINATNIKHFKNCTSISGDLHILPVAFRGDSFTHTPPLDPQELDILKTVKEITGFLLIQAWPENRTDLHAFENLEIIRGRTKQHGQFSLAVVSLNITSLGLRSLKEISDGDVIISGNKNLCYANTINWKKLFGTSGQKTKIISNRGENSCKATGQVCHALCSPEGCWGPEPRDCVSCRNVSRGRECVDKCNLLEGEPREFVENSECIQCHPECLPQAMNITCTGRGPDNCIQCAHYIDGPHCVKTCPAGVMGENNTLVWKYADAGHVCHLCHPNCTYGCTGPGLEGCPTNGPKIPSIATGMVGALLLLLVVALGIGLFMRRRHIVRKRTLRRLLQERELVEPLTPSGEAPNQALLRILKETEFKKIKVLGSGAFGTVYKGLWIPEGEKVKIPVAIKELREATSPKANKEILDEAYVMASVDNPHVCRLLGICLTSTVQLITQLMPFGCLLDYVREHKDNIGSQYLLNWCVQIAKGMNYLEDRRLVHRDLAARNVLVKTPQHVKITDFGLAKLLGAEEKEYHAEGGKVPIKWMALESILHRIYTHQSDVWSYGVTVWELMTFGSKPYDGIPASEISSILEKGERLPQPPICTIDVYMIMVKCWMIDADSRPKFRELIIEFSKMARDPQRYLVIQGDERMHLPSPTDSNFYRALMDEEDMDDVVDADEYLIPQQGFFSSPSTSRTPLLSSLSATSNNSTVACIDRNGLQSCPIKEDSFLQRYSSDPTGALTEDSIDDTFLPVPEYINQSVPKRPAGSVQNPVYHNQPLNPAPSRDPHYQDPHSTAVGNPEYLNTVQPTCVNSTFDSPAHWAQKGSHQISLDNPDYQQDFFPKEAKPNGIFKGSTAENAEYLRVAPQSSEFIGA

Question: With `C#Cc1cccc(Nc2ncnc3cc(OCCOC)c(OCCOC)cc23)c1` [Erlotinib] as the molecule, how does the Cmax [1] read?
Answer: 1390 ng/mL

Question: Which results are given for `NC(CSSCCS(=O)(=O)O)C(=O)O` (stereo not drawn) [MSSC, mesna-cysteine disulfide]?
Answer: NADPH oxidation by TrxR and Trx (TrxR/Trx system): increases; more inhibition of WT EGFR relative to 4 nM Erlotinib alone (WT EGFR kinase; 0.75 mM + 4 nM Erlotinib): 16%; more inhibition of WT EGFR relative to 4 nM Erlotinib alone (WT EGFR kinase; 1.5 mM + 4 nM Erlotinib): 34%; more inhibition of WT EGFR relative to 4 nM Erlotinib alone (WT EGFR kinase; 2.5 mM + 4 nM Erlotinib): 54%; increased inhibition of WT EGFR relative to 20 nM Erlotinib alone (WT EGFR kinase; 0.2 mM + 20 nM Erlotinib): 17%; increased inhibition of WT EGFR relative to 20 nM Erlotinib alone (WT EGFR kinase; 2.5 mM + 20 nM Erlotinib): 15%; Substrate preference of Trx (Recombinant human Trx [2]): preferred slightly

Question: Which results are given for `N[C@@H](CCC(=O)N[C@@H](CSSCCS(=O)(=O)O)C(=O)NCC(=O)O)C(=O)O` [MSSG, mesna-glutathione disulfide]?
Answer: NADPH oxidation by TrxR and Trx (TrxR/Trx system): increases; Substrate preference of Trx (Recombinant human Trx [2]): preferred slightly

Question: What does the source list for `O=S(=O)([O-])CCS.[Na+]` [mesna, 2-mercapto ethane sulfonate]?
Answer: effect alone on MTP polymerization or paclitaxel-induced hyperpolymerization [3]: no detectable effect; protection against monoaquocisplatin-induced loss of polymerization ([3]; mesna 200 μM preincubated 30 minutes with monoaquocisplatin 36 μM): prevented the monoaquocisplatin-induced loss; also recorded: able to protect; effect on GTP-catalyzed microtubule protein polymerization [3]: did not affect; effect on GTP-catalyzed microtubule protein polymerization ([3]; listed as Mesna): does not affect; mesna adduct on thioredoxin fragment CMPTFQFFK (thioredoxin): Cys73-mesna adduct; Cmax [4]: ~323 µM; Concentrations that can be cytotoxic (some cell lines): ≤ 400 µM; Mesna-Cysteine Adduct Detected? (Recombinant human Trx [5]): presence of a mesna adduct on Cys73 of Trx

Question: For bevacizumab [Avastin], which Survival advantage [6] is on record?
Answer: did not confer a survival advantage

B1: Trx-mesna: Trx covalently modified by a Tavocept-derived mesna moiety (conjugate, UniProt P10599 2-105, looked up)
Thioredoxin: VKQIESKTAFQEALDAAGDKLVVVDFSATWCGPCKMIKPFFHSLSEKYSNVIFLEVDVDDCQDVASECEVKCMPTFQFFKKGQKVGEFSGANKEKLEATINELV
modifications: mesna-modified
notes: Trx covalently modified by a Tavocept-derived mesna moiety
Question: With B1 as the molecule, how does the “Effect on initial velocity relative to apo-Trx” value [7] read?
Answer: clear effect on initial velocity

B2: Trx-GSH: Trx modified by glutathione, prepared with glutathione disulfide as control (conjugate, UniProt P10599 2-105, looked up)
Thioredoxin: B1 Thioredoxin
modifications: glutathione-modified
notes: Trx modified by glutathione, prepared with glutathione disulfide as control
Question: With B2 as the molecule, how does the “Effect on initial velocity relative to apo-Trx” value [7] read?
Answer: clear effect on initial velocity
